We go through two compounds from EP1257552B1, “XANTHINE DERIVATIVES, INTERMEDIATES AND USE FOR TREATING OSTEOPOROSIS” (Aventis Pharma S.A., priority 2000, dated 2001).

What all share (format): in vivo
One data set deals with OS TIBIA. Put plainly: Bone mineral density (DEXA) of the tibia in the ovariectomised rat osteopenia model, preventive treatment. Conditions: once daily, 5 days/week for 4 weeks, (BMD treated - BMD OVX)/(BMD SHAM - BMD OVX) x 100. How it is done: (§1) L'impact osseux de ces dérivés xanthine a été évalué sur un modèle d'ostéopénie, la rate ovariectomisée à l'âge de 3 mois, afin de déterminer ses effets sur la masse osseuse, et sur l'activité de formation et de résorption osseuse. Les animaux sont traités en préventif.
(§2) Sur ce modèle d'ostéopénie l'effet de ces dérivés xanthine est comparé à celui de la PTH • Produit à tester : composé de l'exemple 1 • véhicule(s) : méthylcellulose 0,5 % ou sérum physiologique • dose(s) : 10 mg/kg pour le produit. la PTH est administrée à la dose de 10 µg ou 25 µg/kg/j par voie sous cutanée • nombre d'administrations : une fois/jour; 5 jours/semaine pendant 4 semaines • voie d'administration : voie orale pour le produit. La PTH est administrée par voie sous cutanée • volume : 1 ml/kg p o et s c • délai entre l'injection et le sacrifice : 24 heures • nombre d'administrations : 20
(§3) Des rats femelles âgées de 3 mois et pesant environ 250-300 g sont ovariectomisées sous anesthésie à l'Imalgène 1000, à la dose de 100 mg/kg par voie intrapéritonéale (i.p) et sous un volume de 1 ml/kg. Ils reçoivent également du Nembutal (3 mg/kg i.p. sous un volume de 0,3 ml/kg). Les animaux sont répartis en groupes de 8 rats. Après incision latérale, les plans cutanés et musculaires sont sectionnés. L'exérèse de chaque ovaire se fait après ligature de l'oviducte. Les rats "SHAM" sont anesthésiés dans les mêmes conditions. Après incision des plans cutanés et musculaires, chaque ovaire est exposé puis replacé in situ.
(§4) Les effets des produits sont déterminés après un traitement préventif. Les traitements débutent 24 heures après ovariectomie. Les animaux sont traités pendant 4 semaines, et se répartissent de la façon suivante : • un groupe témoin Sham recevant le ou les véhicules • un groupe témoin OVX recevant le ou les véhicules • OVX + dérivé xanthine • OVX + PTH
La masse osseuse (BMD ou Bone Mineral Density = densité minérale osseuse) est mesurée par absorptiométrie biphotonique à rayons X à double énergie (DEXA). Les mesures sont réalisées sur les os excisés et débarrassés de tous les tissus mous. […]

For another data set, the system named is UTERUS. Put plainly: Uterus weight in the ovariectomised rat osteopenia model. The following applies: 4 weeks, weight increase in % of uterus weight of OVX animals receiving solvent only. Here is the method:
as §1, §2, §3, §4
Les utérus sont prélevés. Ces derniers sont pesés. L'augmentation du poids est exprimée, en % du poids de l'utérus des animaux ovariectomisés ne recevant que le solvant. • au niveau osseux : […]

The subject of the next data set is Cholestérol. Put plainly: Serum cholesterol level in the ovariectomised rat osteopenia model. Conditions: 4 weeks, decrease of serum cholesterol in % versus OVX animals receiving solvent only. Here is the method:
as §1, §2, §3, §4
Au terme des 4 semaines de traitement, les animaux sont décapités par guillotine. Les sérums recueillis après centrifugation sont conservés à -20°C. […]

On to `O=c1c2[nH]cnc2n(-c2ccccc2)c(=O)n1Cc1ccncc1` [ex 1, chlorhydratede 3,7-dihydro-3-phényl-1-(4-pyridinylméthyl)-1H-purine-2,6-dione], for which the “OS TIBIA Densité %” value in the data set on OS TIBIA (10 mg/kg po) was 60%. Moreover, the “UTERUS Poids %” value in the data set on UTERUS (10 mg/kg po) is on record as 15%. The Cholestérol % entry in the data set on Cholestérol (10 mg/kg po) is “Pas d'effet”.

Take PTH: the “OS TIBIA Densité %” value in the data set with OS TIBIA (10 µg/kg sc) came out at 69%; in the data set with OS TIBIA (25 µg/kg sc), 100%. Further, the “UTERUS Poids %” value in the data set with UTERUS (10 µg/kg sc) was “Pas d'effet”; in the data set with UTERUS (25 µg/kg sc), 9%. Besides, the Cholestérol % result with Cholestérol (10 µg/kg sc) and with Cholestérol (25 µg/kg sc) was “Pas d'effet” in each case.
